Test results as given in patent publication US20210094920A1, “NR2B LIGANDS; METHOD OF MAKING; AND USE THEREOF” (THE UNITED STATES OF AMERICA, AS REPRESENTED BY THE …, priority 2018, published 2021).
Where two headings read alike, the source gives them in different places.

Columns and labels:
σ1 receptor = σ1 receptor (Homo sapiens, UniProt Q99720); test: σ1 receptor binding at 10 μM
Experimental: (§1) All derivatives were evaluated for binding to the NR2B site and other neuro-targets. Table 1 provides the structures of the derivatives, molecular weight, calculated Log D values, the structure-activity relationship, and binding data.

σ2 receptor = σ2 receptor (Homo sapiens, UniProt Q5BJF2); test: σ2 receptor binding at 10 μM
Experimental: as §1

[1] = biological target: NR2B subunits in NMDA receptors (Rattus norvegicus, UniProt P35439+Q00960); test: PET imaging of brain in rats (baseline, preblock, displacement); settings: for brain radioactivity uptake / washout of brain radioactivity: rats at baseline; for brain radioactivity uptake: i.v. radioligand, at 5 minutes; for washout of brain radioactivity: over 90 minutes; for effect of pretreatment on brain radioactivity uptake / displacement of radioligand: radioligand [^11C]NR2B-SMe; for displacement of radioligand: given at 15 min after radioligand, over 90 min
Experimental: Displacement studies where NR2B-SMe or eliprodil was given at 15 min after radioligand were also performed.

NR2B site = NR2B site (Homo sapiens, UniProt Q05586+Q13224); test: binding to the NR2B site (Ki, automatic and manual); settings: for affinity for NR2B: stated in words
Experimental: as §1

[2] = system: NR2B subunits in NMDA receptors; test: Brain PET imaging (VT/fP) in monkey (baseline, Co101244 block, self-block); type: in vivo
[3] = system: NR2B subunits in NMDA receptors; test: as above; type: in vivo; remark: listed apart in the source
Source text: Table 2 provides the normalized total volume of distribution (VT/fP) (ml/cm^3) for whole brain and specific regions of the brain at baseline, Co101244 (1-[2-(4-hydroxyphenoxy)ethyl]-4-[(4-methylphenyl)methyl]-4-piperidinol) block and self-block.

[4] = automatic, read-out: Ki (nM), automatic
[5] = manual, read-out: Ki (nM), manual
[6] = rats, 0.01-3 mg/kg, i.v. at 15 min before radioligand injection

Chain of NR2B subunits in NMDA receptors (Rattus norvegicus, UniProt P35439+Q00960) (Q00960 27-1482, other chains not shown): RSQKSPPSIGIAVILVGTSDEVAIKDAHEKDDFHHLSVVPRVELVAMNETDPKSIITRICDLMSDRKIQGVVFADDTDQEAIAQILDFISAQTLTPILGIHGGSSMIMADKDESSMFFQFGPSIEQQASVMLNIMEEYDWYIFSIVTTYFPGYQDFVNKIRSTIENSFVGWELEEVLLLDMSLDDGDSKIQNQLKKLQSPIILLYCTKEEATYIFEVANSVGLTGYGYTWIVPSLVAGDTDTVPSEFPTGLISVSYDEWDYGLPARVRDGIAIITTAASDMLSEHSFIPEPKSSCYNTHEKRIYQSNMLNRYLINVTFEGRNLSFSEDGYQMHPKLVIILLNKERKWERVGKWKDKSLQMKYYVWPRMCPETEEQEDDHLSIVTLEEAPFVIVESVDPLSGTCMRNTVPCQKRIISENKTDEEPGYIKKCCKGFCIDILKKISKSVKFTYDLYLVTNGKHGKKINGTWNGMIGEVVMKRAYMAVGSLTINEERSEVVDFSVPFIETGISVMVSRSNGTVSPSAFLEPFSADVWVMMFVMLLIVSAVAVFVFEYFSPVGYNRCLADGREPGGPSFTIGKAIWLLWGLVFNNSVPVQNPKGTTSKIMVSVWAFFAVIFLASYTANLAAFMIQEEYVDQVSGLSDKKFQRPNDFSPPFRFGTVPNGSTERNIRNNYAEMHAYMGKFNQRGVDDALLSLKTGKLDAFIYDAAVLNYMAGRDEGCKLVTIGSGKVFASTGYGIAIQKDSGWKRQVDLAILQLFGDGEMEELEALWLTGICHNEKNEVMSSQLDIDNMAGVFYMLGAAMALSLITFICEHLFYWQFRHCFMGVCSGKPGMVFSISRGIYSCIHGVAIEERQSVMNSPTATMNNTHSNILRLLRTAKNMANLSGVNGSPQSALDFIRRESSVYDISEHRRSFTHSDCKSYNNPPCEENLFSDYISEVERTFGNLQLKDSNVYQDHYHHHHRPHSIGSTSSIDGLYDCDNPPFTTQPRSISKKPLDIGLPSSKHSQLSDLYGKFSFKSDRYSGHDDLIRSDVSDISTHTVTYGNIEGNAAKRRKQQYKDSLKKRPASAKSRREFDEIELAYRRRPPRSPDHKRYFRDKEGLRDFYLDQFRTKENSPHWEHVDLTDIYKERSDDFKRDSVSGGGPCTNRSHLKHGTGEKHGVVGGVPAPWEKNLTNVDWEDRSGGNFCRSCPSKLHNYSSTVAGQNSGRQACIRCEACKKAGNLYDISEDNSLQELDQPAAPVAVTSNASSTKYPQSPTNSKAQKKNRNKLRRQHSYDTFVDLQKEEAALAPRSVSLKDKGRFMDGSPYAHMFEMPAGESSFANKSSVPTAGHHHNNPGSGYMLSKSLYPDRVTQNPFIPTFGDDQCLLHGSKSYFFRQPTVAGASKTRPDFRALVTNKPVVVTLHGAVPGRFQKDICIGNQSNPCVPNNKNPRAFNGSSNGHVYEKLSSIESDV
Chain of σ1 receptor (Q99720 whole entry): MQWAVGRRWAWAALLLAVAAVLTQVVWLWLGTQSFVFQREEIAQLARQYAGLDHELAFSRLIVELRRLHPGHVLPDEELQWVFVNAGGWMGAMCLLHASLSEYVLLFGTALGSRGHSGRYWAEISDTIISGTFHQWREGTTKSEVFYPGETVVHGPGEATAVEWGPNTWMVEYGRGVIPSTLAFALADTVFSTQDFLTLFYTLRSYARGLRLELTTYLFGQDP
Chain of σ2 receptor (Q5BJF2 whole entry, species assumed): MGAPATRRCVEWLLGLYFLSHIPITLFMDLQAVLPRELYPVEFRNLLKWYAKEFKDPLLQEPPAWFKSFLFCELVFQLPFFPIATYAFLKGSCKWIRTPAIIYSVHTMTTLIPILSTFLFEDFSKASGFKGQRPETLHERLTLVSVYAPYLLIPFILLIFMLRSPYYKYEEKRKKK
Chain of NR2B site (Q13224 27-1484, other chains not shown): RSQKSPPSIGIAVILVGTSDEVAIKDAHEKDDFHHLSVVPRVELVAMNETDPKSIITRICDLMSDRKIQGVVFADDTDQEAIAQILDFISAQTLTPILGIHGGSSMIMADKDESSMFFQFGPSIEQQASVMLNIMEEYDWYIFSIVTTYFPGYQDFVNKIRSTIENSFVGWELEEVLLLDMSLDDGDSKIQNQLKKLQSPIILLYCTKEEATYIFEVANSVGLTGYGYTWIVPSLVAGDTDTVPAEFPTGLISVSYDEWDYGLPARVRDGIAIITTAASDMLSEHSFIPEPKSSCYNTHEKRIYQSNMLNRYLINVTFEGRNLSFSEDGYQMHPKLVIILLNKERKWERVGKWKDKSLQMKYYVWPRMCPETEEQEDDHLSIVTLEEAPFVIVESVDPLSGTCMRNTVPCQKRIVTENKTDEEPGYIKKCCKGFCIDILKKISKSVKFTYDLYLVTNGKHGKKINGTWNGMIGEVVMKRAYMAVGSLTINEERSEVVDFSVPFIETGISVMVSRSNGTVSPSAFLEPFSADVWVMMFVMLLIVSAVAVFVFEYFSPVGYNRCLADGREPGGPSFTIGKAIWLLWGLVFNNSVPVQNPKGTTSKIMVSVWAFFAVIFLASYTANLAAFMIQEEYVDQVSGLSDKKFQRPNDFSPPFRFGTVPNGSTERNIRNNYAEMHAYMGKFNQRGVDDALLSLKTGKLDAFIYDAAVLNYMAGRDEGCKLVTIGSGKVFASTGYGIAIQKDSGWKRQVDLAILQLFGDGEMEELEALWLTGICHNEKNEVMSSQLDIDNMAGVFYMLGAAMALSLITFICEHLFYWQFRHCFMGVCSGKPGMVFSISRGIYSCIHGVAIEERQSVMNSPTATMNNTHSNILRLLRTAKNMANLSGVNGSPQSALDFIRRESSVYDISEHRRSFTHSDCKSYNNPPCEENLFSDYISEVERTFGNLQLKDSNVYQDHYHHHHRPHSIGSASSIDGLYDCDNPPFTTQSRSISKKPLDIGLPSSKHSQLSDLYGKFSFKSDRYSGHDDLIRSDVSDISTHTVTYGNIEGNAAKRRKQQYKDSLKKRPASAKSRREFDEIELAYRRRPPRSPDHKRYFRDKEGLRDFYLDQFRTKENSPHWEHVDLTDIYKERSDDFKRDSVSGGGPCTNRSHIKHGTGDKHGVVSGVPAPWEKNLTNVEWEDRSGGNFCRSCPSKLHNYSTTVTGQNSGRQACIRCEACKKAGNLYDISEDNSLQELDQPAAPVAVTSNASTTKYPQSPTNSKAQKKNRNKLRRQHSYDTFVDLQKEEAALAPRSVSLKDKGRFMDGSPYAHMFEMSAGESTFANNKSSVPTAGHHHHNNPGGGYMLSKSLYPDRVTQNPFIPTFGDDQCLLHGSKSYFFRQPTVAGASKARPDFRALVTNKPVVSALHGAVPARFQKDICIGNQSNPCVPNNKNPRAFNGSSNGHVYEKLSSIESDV

## COc1ccc2c(c1)CCN(CCC#Cc1cccc(F)n1)CC2O (stereo not drawn) [Compound 8]
σ1 receptor
  inhibition at 10 µM: 40.8%
σ2 receptor
  inhibition at 10 µM: 56.4%

## COc1ccc2c(c1)CCN(CCCCc1ccc(SC)cc1)CC2O (stereo not drawn) [[^11C]NR2B-SMe, [^11C] 7-methoxy-3-(4-(4-(methylthio)phenyl)butyl)-2,3,4,5-tetrahydro-1H-benzo[d]azepin-1-ol]
[1]
  brain radioactivity uptake: 3.5 SUV
  washout of brain radioactivity: very low washout

## CC(C(O)c1ccc(O)cc1)N1CCC(Cc2ccccc2)CC1 (stereo not drawn) [ifendopril, reference compound]
[1]; rats, 3 mg/kg i.v
  effect of pretreatment on brain radioactivity uptake: blocked brain radioactivity uptake to the similar high extent

## COc1ccc2c(c1)CCN(CCCCc1ccc(F)cc1)CC2O (stereo not drawn) [Compound 6]
σ1 receptor
  inhibition at 10 µM: 57.9%
σ2 receptor
  inhibition at 10 µM: 76.9%

## COc1ccc2c(c1)CCN(CCCCc1ccccc1)CC2O (stereo not drawn) [Compound 1, 7-methoxy-3-(4-phenylbutyl)-2,3,4,5-tetrahydro-1H-benzo[d]azepin-1-ol, reference compound]
σ1 receptor
  inhibition at 10 µM: 89.1%
σ2 receptor
  inhibition at 10 µM: 87.8%
NR2B site; [4]
  Ki: 43.5 nM
NR2B site; [5]
  Ki: 9.8 nM

## COc1ccc(CCCCN2CCc3cc(OC)ccc3C(O)C2)cc1 (stereo not drawn) [Compound 3]
σ2 receptor
  inhibition at 10 µM: 91.4%

## COc1ccc(CCN2CCN(CCCc3ccccc3)CC2)cc1OC [SA 4503, reference compound]
[1]; [6]
  effect of pretreatment on brain radioactivity uptake: blocked brain radioactivity uptake in a dose-dependent manner

## OC(CN1CCC(Cc2ccc(F)cc2)CC1)c1ccc(Cl)cc1 (stereo not drawn) [Eliprodil, reference compound]
[1]; rats, 3 mg/kg i.v
  effect of pretreatment on brain radioactivity uptake: blocked brain radioactivity uptake to the similar high extent
[1]; rats
  displacement of radioligand: failed to displace radioligand

## COc1ccc2c(c1)CCN(CCC#Cc1ccccn1)CC2O (stereo not drawn) [Compound 7]
σ1 receptor
  inhibition at 10 µM: 66.4%
σ2 receptor
  inhibition at 10 µM: 74.2%

## COc1ccc2c(c1)CCN(CCCCc1ccc(SC)cc1)CC2O (stereo not drawn) [Compound 9, 7-methoxy-3-(4-(4-(methylthio)phenyl)butyl)-2,3,4,5-tetrahydro-1H-benzo[d]azepin-1-ol]
[1]; [6]
  effect of pretreatment on brain radioactivity uptake: blocked brain radioactivity uptake in a dose-dependent manner
[1]; rats
  displacement of radioligand: only slow and low displacement
NR2B site; [4]
  Ki: 20 nM
NR2B site
  affinity for NR2B: in the nM range

## COc1ccc2c(c1)CCN(CCCCc1ccc(C)cc1)CC2O (stereo not drawn) [[^11C]NR2B-Me, 7-methoxy-3-(4-(4-methylphenyl)butyl)-2,3,4,5-tetrahydro-1H-benzo[d]azepin-1-ol]
[1]
  brain radioactivity uptake: 3.0 SUV
  washout of brain radioactivity: slow washout

## COc1ccc2c(c1)CCN(CCCCc1ccc(C)cc1)CC2O (stereo not drawn) [Compound 4, 7-methoxy-3-(4-(4-methylphenyl)butyl)-2,3,4,5-tetrahydro-1H-benzo[d]azepin-1-ol]
σ1 receptor
  inhibition at 10 µM: 89.7%
σ2 receptor
  inhibition at 10 µM: 90.7%
NR2B site; [4]
  Ki: 31.3 nM
NR2B site; [5]
  Ki: 4.9 nM
NR2B site
  affinity for NR2B: in the nM range

## COc1ccc2c(c1)CCN(CCCCc1ccc(Br)cc1)CC2O (stereo not drawn) [Compound 5]
σ1 receptor
  inhibition at 10 µM: 83.7%
σ2 receptor
  inhibition at 10 µM: 90%

## COc1ccc2c(c1)CCN(CCCCc1ccc3ccccc3c1)CC2O (stereo not drawn) [Compound 2]
σ1 receptor
  inhibition at 10 µM: 84.4%

## COc1ccc2c(c1)CCN(CCCCc1ccc(C)cc1)C[C@@H]2O [[^11C]NR2B-MeI, (R)(−)7-methoxy-3-(4-(4-methylphenyl)butyl)-2,3,4,5-tetrahydro-1H-benzo[d]azepin-1-ol]
[2]
  time after radioligand injection from which V showed time stability: ≥ 80 min
[2]; whole brain, self-block
  binding potential of whole brain, BPND: 4.6
[3]; Amygdala, Baseline Ave.
  Normalized Total Volume of Distribution (VT/fp): 3171.1 ml/cm^3
[3]; Amygdala, Co101244 block
  Normalized Total Volume of Distribution (VT/fp): 515.5 ml/cm^3
[3]; Amygdala, Self-block
  Normalized Total Volume of Distribution (VT/fp): 405.4 ml/cm^3
[3]; Cerebellum, Baseline Ave.
  Normalized Total Volume of Distribution (VT/fp): 1465.9 ml/cm^3
[3]; Cerebellum, Co101244 block
  Normalized Total Volume of Distribution (VT/fp): 426.4 ml/cm^3
[3]; Cerebellum, Self-block
  Normalized Total Volume of Distribution (VT/fp): 348.6 ml/cm^3
[3]; Cingulate Cortex, Baseline Ave.
  Normalized Total Volume of Distribution (VT/fp): 2388.9 ml/cm^3
[3]; Cingulate Cortex, Co101244 block
  Normalized Total Volume of Distribution (VT/fp): 523.3 ml/cm^3
[3]; Cingulate Cortex, Self-block
  Normalized Total Volume of Distribution (VT/fp): 400.0 ml/cm^3
[3]; Frontal Cortex, Baseline Ave.
  Normalized Total Volume of Distribution (VT/fp): 2254.5 ml/cm^3
[3]; Frontal Cortex, Co101244 block
  Normalized Total Volume of Distribution (VT/fp): 562.0 ml/cm^3
[3]; Frontal Cortex, Self-block
  Normalized Total Volume of Distribution (VT/fp): 451.4 ml/cm^3
[3]; Hippocampus, Baseline Ave.
  Normalized Total Volume of Distribution (VT/fp): 2389.6 ml/cm^3
[3]; Hippocampus, Co101244 block
  Normalized Total Volume of Distribution (VT/fp): 465.1 ml/cm^3
[3]; Hippocampus, Self-block
  Normalized Total Volume of Distribution (VT/fp): 370.3 ml/cm^3
[3]; Insula, Baseline Ave.
  Normalized Total Volume of Distribution (VT/fp): 2314.2 ml/cm^3
[3]; Insula, Co101244 block
  Normalized Total Volume of Distribution (VT/fp): 542.6 ml/cm^3
[3]; Insula, Self-block
  Normalized Total Volume of Distribution (VT/fp): 408.1 ml/cm^3
[3]; Occipital Lobe, Baseline Ave.
  Normalized Total Volume of Distribution (VT/fp): 1676.3 ml/cm^3
[3]; Occipital Lobe, Co101244 block
  Normalized Total Volume of Distribution (VT/fp): 484.5 ml/cm^3
[3]; Occipital Lobe, Self-block
  Normalized Total Volume of Distribution (VT/fp): 402.7 ml/cm^3
[3]; Parietal Lobe, Baseline Ave.
  Normalized Total Volume of Distribution (VT/fp): 2001.4 ml/cm^3
[3]; Parietal Lobe, Co101244 block
  Normalized Total Volume of Distribution (VT/fp): 538.8 ml/cm^3
[3]; Parietal Lobe, Self-block
  Normalized Total Volume of Distribution (VT/fp): 440.5 ml/cm^3
[3]; Striatum, Baseline Ave.
  Normalized Total Volume of Distribution (VT/fp): 1965.2 ml/cm^3
[3]; Striatum, Co101244 block
  Normalized Total Volume of Distribution (VT/fp): 573.6 ml/cm^3
[3]; Striatum, Self-block
  Normalized Total Volume of Distribution (VT/fp): 437.8 ml/cm^3
[3]; Temporal Lobe, Baseline Ave.
  Normalized Total Volume of Distribution (VT/fp): 1956.8 ml/cm^3
[3]; Temporal Lobe, Co101244 block
  Normalized Total Volume of Distribution (VT/fp): 476.7 ml/cm^3
[3]; Temporal Lobe, Self-block
  Normalized Total Volume of Distribution (VT/fp): 373.0 ml/cm^3
[3]; Thalamus, Baseline Ave.
  Normalized Total Volume of Distribution (VT/fp): 2385.1 ml/cm^3
[3]; Thalamus, Co101244 block
  Normalized Total Volume of Distribution (VT/fp): 596.9 ml/cm^3
[3]; Thalamus, Self-block
  Normalized Total Volume of Distribution (VT/fp): 445.9 ml/cm^3
[3]; Whole Brain, Baseline Ave.
  Normalized Total Volume of Distribution (VT/fp): 1959.7 ml/cm^3
[3]; Whole Brain, Co101244 block
  Normalized Total Volume of Distribution (VT/fp): 511.6 ml/cm^3
[3]; whole brain, Co101244
  binding potential of whole brain, BPND: 3.8
[3]; whole brain, self-block
  Normalized Total Volume of Distribution (VT/fp): 408.1 ml/cm^3
[1]; PET imaging in rats
  displacement: 65%
  preblocking: 95%
  reversibility of binding: reversible binding
[1]
  washout of brain radioactivity: slow washout
[1]; rats, within 5 minutes
  brain radioactivity uptake (in words): very high
